Measurements taken from PubChem BioAssay AID1963851 (Molecular Pharmacology Branch, DTP, NCI, 2024).

Tested on: 188146-221-R-J1-PDC complex spheroid viability
Assay: Anticancer human tumor 188146-221-R-J1-PDC patient-derived colon adenocarcinoma cell line growth inhibition [POLQ]
Details: for IC50: curve of first compound; for viability, T/C: stronger effect = lower value
How it was run: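 PDC + HUVEC + MSC complex spheroids; POLQ inhibitors ± partner drugs; top conc. at/near clinical Cmax, else 10 microM (SN-38 1 microM), half-log dilutions; 37 degrees C, 5% CO2.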

[1] = second compound 0.0316 µM, first compound 0.0316 µM
[2] = second compound 0.0316 µM, first compound 0.1 µM
[3] = second compound 0.0316 µM, first compound 0.316 µM
[4] = second compound 0.0316 µM, first compound 1 µM
[5] = second compound 0.1 µM, first compound 0.0316 µM
[6] = second compound 0.1 µM, first compound 0.1 µM
[7] = second compound 0.1 µM, first compound 0.316 µM
[8] = second compound 0.1 µM, first compound 1 µM
[9] = second compound 0.316 µM, first compound 0.0316 µM
[10] = second compound 0.316 µM, first compound 0.1 µM
[11] = second compound 0.316 µM, first compound 0.316 µM
[12] = second compound 0.316 µM, first compound 1 µM
[13] = second compound 1 µM, first compound 0.0316 µM
[14] = second compound 1 µM, first compound 0.1 µM
[15] = second compound 1 µM, first compound 0.316 µM
[16] = second compound 1 µM, first compound 1 µM
[17] = second compound 3.16 µM, first compound 0.0316 µM
[18] = second compound 3.16 µM, first compound 0.1 µM
[19] = second compound 3.16 µM, first compound 0.316 µM
[20] = second compound 3.16 µM, first compound 1 µM
[21] = second compound 10 µM, first compound 0.0316 µM
[22] = second compound 10 µM, first compound 0.1 µM
[23] = second compound 10 µM, first compound 0.316 µM
[24] = second compound 10 µM, first compound 1 µM
[25] = second compound 0.0316 µM, first compound 3.16 µM
[26] = second compound 0.0316 µM, first compound 10 µM
[27] = second compound 0.1 µM, first compound 3.16 µM
[28] = second compound 0.1 µM, first compound 10 µM
[29] = second compound 0.316 µM, first compound 3.16 µM
[30] = second compound 0.316 µM, first compound 10 µM
[31] = second compound 1 µM, first compound 3.16 µM
[32] = second compound 1 µM, first compound 10 µM
[33] = second compound 3.16 µM, first compound 3.16 µM
[34] = second compound 3.16 µM, first compound 10 µM
[35] = second compound 10 µM, first compound 3.16 µM
[36] = second compound 10 µM, first compound 10 µM
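Also: spheroids exposed to compounds for seven days.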
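For viability, T/C in this document: 100% = DMSO vehicle control viability.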

`COc1cccc(OCCCN)c1-c1cc(Nc2cnc(C#N)cn2)n[nH]1` + COC1C(OC(N)=O)C(O)C(Oc2ccc3c(O)c(NC(=O)c4ccc(O)c(CC=C(C)C)c4)c(=O)oc3c2C)OC1(C)C gave an IC50 (second compound 0.0316 µM) of 28.7 nM, an IC50 (second compound 0.1 µM) of 35 nM and an IC50 (second compound 0.316 µM) of 39.4 nM. It also gave an IC50 (second compound 1 µM) of 30.5 nM, an IC50 (second compound 3.16 µM) of 27.6 nM and an IC50 (second compound 10 µM) of 22.2 nM. The viability, T/C (second compound 0.0316 µM, first compound 0.00316 µM) was 105%, the viability, T/C (second compound 0.0316 µM, first compound 0.01 µM) was 77.3% and the viability, T/C [1] was 51.3%. It also gave a viability, T/C [2] of 20.1%, a viability, T/C [3] of 13% and a viability, T/C [4] of 10.6%. It also gave a viability, T/C (second compound 0.1 µM, first compound 0.00316 µM) of 107%, a viability, T/C (second compound 0.1 µM, first compound 0.01 µM) of 96.6% and a viability, T/C [5] of 51.9%. For the same compound, the viability, T/C [6] was 20.7%, the viability, T/C [7] was 12.7% and the viability, T/C [8] was 9.49%. The viability, T/C (second compound 0.316 µM, first compound 0.00316 µM) was 97%, the viability, T/C (second compound 0.316 µM, first compound 0.01 µM) was 80.6% and the viability, T/C [9] was 60.2%. The viability, T/C [10] was 18%, the viability, T/C [11] was 10.6% and the viability, T/C [12] was 9.85%. The viability, T/C (second compound 1 µM, first compound 0.00316 µM) was 106%, the viability, T/C (second compound 1 µM, first compound 0.01 µM) was 90.1% and the viability, T/C [13] was 47.6%. For the same compound, the viability, T/C [14] was 21%, the viability, T/C [15] was 12% and the viability, T/C [16] was 9.09%. For the same compound, the viability, T/C (second compound 3.16 µM, first compound 0.00316 µM) was 89.5%, the viability, T/C (second compound 3.16 µM, first compound 0.01 µM) was 79.8% and the viability, T/C [17] was 45.8%. The viability, T/C [18] was 18.4%, the viability, T/C [19] was 12.5% and the viability, T/C [20] was 9.13%. For the same compound, the viability, T/C (second compound 10 µM, first compound 0.00316 µM) was 103%, the viability, T/C (second compound 10 µM, first compound 0.01 µM) was 83.1% and the viability, T/C [21] was 35.1%. It also gave a viability, T/C [22] of 15.2%, a viability, T/C [23] of 11.4% and a viability, T/C [24] of 9.97%.

`Nc1ccn(C2OC(CO)C(O)C2(F)F)c(=O)n1` (stereo unspecified) + COC1C(OC(N)=O)C(O)C(Oc2ccc3c(O)c(NC(=O)c4ccc(O)c(CC=C(C)C)c4)c(=O)oc3c2C)OC1(C)C was tested, and the IC50 (second compound 0.0316 µM) was < 31.6 nM, the IC50 (second compound 0.1 µM) was 32.1 nM and the IC50 (second compound 0.316 µM) was < 31.6 nM. The IC50 (second compound 1 µM) was < 31.6 nM, the IC50 (second compound 3.16 µM) was < 31.6 nM and the IC50 (second compound 10 µM) was < 31.6 nM. The viability, T/C [1] was 46.8%, the viability, T/C [2] was 29.5% and the viability, T/C [3] was 17.4%. The viability, T/C [4] was 14.4%, the viability, T/C [25] was 15.2% and the viability, T/C [26] was 13.2%. The viability, T/C [5] was 50.4%, the viability, T/C [6] was 29.4% and the viability, T/C [7] was 13.8%. For the same compound, the viability, T/C [8] was 12.5%, the viability, T/C [27] was 14.8% and the viability, T/C [28] was 14.3%. For the same compound, the viability, T/C [9] was 41.1%, the viability, T/C [10] was 28.7% and the viability, T/C [11] was 21.8%. It also gave a viability, T/C [12] of 12.2%, a viability, T/C [29] of 12% and a viability, T/C [30] of 11%. The viability, T/C [13] was 41.5%, the viability, T/C [14] was 24.8% and the viability, T/C [15] was 19.2%. For the same compound, the viability, T/C [16] was 13.4%, the viability, T/C [31] was 13.5% and the viability, T/C [32] was 12.6%. The viability, T/C [17] was 46.3%, the viability, T/C [18] was 26.1% and the viability, T/C [19] was 16.2%. For the same compound, the viability, T/C [20] was 13.5%, the viability, T/C [33] was 14% and the viability, T/C [34] was 13.9%. For the same compound, the viability, T/C [21] was 45.6%, the viability, T/C [22] was 20.5% and the viability, T/C [23] was 16.1%. It also gave a viability, T/C [24] of 12.4%, a viability, T/C [35] of 16.4% and a viability, T/C [36] of 13.3%.

In the case of `O=C(c1cc(Cc2n[nH]c(=O)c3ccccc23)ccc1F)N1CCN(C(=O)C2CC2)CC1` + COC1C(OC(N)=O)C(O)C(Oc2ccc3c(O)c(NC(=O)c4ccc(O)c(CC=C(C)C)c4)c(=O)oc3c2C)OC1(C)C, the IC50 (second compound 0.0316 µM) is reported as > 10000 nM, the IC50 (second compound 0.1 µM) is reported as > 10000 nM and the IC50 (second compound 0.316 µM) is reported as > 10000 nM. The IC50 (second compound 1 µM) was > 10000 nM, the IC50 (second compound 3.16 µM) was > 10000 nM and the IC50 (second compound 10 µM) was > 10000 nM. It also gave a viability, T/C [1] of 93.5%, a viability, T/C [2] of 88.6% and a viability, T/C [3] of 100%. It also gave a viability, T/C [4] of 98.4%, a viability, T/C [25] of 99.5% and a viability, T/C [26] of 74.3%. It also gave a viability, T/C [5] of 107%, a viability, T/C [6] of 102% and a viability, T/C [7] of 97.1%. It also gave a viability, T/C [8] of 106%, a viability, T/C [27] of 91.3% and a viability, T/C [28] of 85.2%. The viability, T/C [9] was 108%, the viability, T/C [10] was 94.1% and the viability, T/C [11] was 97.7%. The viability, T/C [12] was 105%, the viability, T/C [29] was 90.7% and the viability, T/C [30] was 72.7%. It also gave a viability, T/C [13] of 106%, a viability, T/C [14] of 104% and a viability, T/C [15] of 104%. It also gave a viability, T/C [16] of 96.3%, a viability, T/C [31] of 89.5% and a viability, T/C [32] of 74.7%. The viability, T/C [17] was 108%, the viability, T/C [18] was 107% and the viability, T/C [19] was 101%. The viability, T/C [20] was 91.7%, the viability, T/C [33] was 105% and the viability, T/C [34] was 96.6%. The viability, T/C [21] was 101%, the viability, T/C [22] was 103% and the viability, T/C [23] was 98.8%. The viability, T/C [24] was 97.1%, the viability, T/C [35] was 108% and the viability, T/C [36] was 80.5%.
